Laboratory results from publication PMC8387461, “T cell receptor recognition of hybrid insulin peptides bound to HLA-DQ8” (Nature Communications, 2021).

What was measured:
Format in all cases: cell-based, human
[1] = tested on: CD4+ T cell clone A5.5; experiment: T cell stimulation assay, IFNγ ELISA, clone A5.5; conditions: primary clone A5.5, APC EBV-KJ, 24 h
Method: (§1) Fig. 2 Comparison of the stimulatory capacity of full-length proinsulin C-peptide and HIP on T1D CD4 + T cell clones. […] Titration of full-length 31-mer C-peptide ([…], (open circles) and 15mer C-peptide-IAPP2 HIP ([…] (filled circles). Antigen presenting cells (APC) were the EBV line, EBV-KJ, (2 × 10^4 cells/well). APC were cultured for 24 h with the same number (2 × 10^4 cells/well) of the primary CD4 + T-cell clone and the peptide concentration indicated. T-cell response to peptide were indicated by secretion of IFNγ which was measured in triplicate by ELISA and reported as pg/ml. Mean and standard deviations of triplicate IFNγ measurements are shown. Results are representative of two experiments for each clone.
(§2) For primary T1D CD4+ T cell clones, cells were thawed and used directly in functional assays. For T cell stimulation assays, cloned CD4+ T cells were incubated with BLCL KJ (; HLA-DQ8 + : HLA-DQA1*03:01, HLA-DQB1*03:02), as APCs, together with synthetic peptides. For the alanine scan experiments, each peptide was added to a final concentration of 10 μM. T cell response to antigen was measured as interferon gamma (IFNγ) secretion into the culture media. The IFNγ concentration in the culture media was determined by ELISA (Biolegend).
(§3) Supplementary Figure 8. […]
(§4) type) at each position P-3 to P12 are shown. IFNγ was measured in triplicate by ELISA, concentrations are shown in pg/ml. […]

[2] = tested on: SKW-3 A1.9 TCR cells; experiment: CD69 upregulation, SKW-3 A1.9 TCR cells; conditions: CD69 MFI, flow cytometry; peptide-pulsed BLCL 9031, 20 h
Method: For TCR transduced SKW-3 T cell lines (SKW-3-TCR), response to antigen was determined using flow cytometry to assess the level of upregulation of the T cell activation marker CD69. One hundred thousand BLCL 9031 cells (HLA-DQ8 + : HLA-DQA*03:01:01, HLA-DQB1*03:02) as APCs were incubated at 37 °C, 5% CO2 for 24 h with increasing concentrations of synthesised HIP ([…]; GLBiochem) or native C-peptide ([…]; GLBiochem) or 50 μg DQ8-glia-α1 (control) in 96 well round-bottomed plates. […] Before data acquisition, the samples were resuspended in 100 μl of FACS buffer and analysed via flow cytometry (LSR II; BD Biosciences; BD FACSDiva-8.0.1 software). Collected data were analysed using Flowjo v10.6.0 (FlowJo), and then Prism 9 (GraphPad Software). […] Using these settings, the median fluorescence intensity (MFI) corresponding to the relative level of CD69 expressed on the SKW-3-TCR.TCR cell lines was determined using Flowjo v10.6.0 software. The MFI of CD69 were analysed by using Prism 9 (GraphPad Software). […] Statistical significance was determined using P-values generated by t-test or one-way ANOVA multiple comparison of the MFI of no-peptide-stimulated SKW-3-TCR T cells versa the MFI of peptide-stimulated SKW-3-TCR T cells. […]
expression. The fold increase in MFI CD69 expression was calculated by dividing the average MFI CD69 from each sample by the average MFI CD69 from BLCL 9031 (no […]

[3] = tested on: CD4+ T cell clone A1.9; experiment: T cell stimulation assay, IFNγ ELISA, clone A1.9; conditions: primary clone A1.9, APC EBV-KJ, 24 h, 31-mer C-peptide versus 15mer HIP titration
Method: as §1, §2, §3, §4

[4] = tested on: CD4+ T cell clone A3.10; experiment: T cell stimulation assay, IFNγ ELISA, clone A3.10; conditions: A3.10 T cell clone, as stated in the alanine scan section
Method: as §1, §2, §3, §4

GQVELGGGNAVEVLK [HIP]
sensitivity to HIP versus native proinsulin C-peptide [1]: ten times more sensitive to the HIP peptide than native proinsulin C-peptide | preference for HIP over C-peptide [2]: 25 fold | response of clone to HIP versus proinsulin C-peptide [3]: responds equally to proinsulin C-peptide or HIP | sensitivity to HIP relative to proinsulin C-peptide [4]: 100 fold
